The target of one experiment is T1, Progesterone receptor (Homo sapiens, UniProt P06401).
T1 sequence (P06401 whole entry): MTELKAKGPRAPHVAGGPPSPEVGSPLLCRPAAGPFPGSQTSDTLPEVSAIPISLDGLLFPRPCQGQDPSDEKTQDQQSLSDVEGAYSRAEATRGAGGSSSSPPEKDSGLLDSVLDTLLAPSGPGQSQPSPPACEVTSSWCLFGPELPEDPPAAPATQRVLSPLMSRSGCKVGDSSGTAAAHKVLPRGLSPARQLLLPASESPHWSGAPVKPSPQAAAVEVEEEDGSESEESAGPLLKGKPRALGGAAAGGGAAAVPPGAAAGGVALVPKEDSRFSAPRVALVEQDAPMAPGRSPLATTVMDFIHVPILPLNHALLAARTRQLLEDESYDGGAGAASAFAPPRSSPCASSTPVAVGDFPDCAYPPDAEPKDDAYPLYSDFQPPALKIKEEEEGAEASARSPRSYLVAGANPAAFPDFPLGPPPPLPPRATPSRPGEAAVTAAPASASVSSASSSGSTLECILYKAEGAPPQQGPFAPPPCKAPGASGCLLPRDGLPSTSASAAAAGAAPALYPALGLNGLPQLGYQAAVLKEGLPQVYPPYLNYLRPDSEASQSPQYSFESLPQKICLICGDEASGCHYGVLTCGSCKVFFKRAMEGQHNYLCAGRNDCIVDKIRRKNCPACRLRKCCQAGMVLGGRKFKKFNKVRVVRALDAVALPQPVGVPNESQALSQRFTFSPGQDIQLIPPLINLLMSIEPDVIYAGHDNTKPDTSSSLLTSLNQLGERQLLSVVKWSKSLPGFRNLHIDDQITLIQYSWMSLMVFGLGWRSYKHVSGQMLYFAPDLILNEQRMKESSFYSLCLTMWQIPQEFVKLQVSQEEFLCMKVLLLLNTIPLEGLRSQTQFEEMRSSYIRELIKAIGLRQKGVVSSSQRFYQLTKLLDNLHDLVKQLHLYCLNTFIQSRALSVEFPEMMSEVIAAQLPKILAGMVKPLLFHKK
As to the kind of experiment: Antagonist activity against progesterone receptor in human T47D cells by alkaline phosphatase assay. The class given is functional, cell-based.

Experiment [1] has as its target T2, Androgen receptor (Homo sapiens) (UniProt P10275).
T2 sequence (whole entry): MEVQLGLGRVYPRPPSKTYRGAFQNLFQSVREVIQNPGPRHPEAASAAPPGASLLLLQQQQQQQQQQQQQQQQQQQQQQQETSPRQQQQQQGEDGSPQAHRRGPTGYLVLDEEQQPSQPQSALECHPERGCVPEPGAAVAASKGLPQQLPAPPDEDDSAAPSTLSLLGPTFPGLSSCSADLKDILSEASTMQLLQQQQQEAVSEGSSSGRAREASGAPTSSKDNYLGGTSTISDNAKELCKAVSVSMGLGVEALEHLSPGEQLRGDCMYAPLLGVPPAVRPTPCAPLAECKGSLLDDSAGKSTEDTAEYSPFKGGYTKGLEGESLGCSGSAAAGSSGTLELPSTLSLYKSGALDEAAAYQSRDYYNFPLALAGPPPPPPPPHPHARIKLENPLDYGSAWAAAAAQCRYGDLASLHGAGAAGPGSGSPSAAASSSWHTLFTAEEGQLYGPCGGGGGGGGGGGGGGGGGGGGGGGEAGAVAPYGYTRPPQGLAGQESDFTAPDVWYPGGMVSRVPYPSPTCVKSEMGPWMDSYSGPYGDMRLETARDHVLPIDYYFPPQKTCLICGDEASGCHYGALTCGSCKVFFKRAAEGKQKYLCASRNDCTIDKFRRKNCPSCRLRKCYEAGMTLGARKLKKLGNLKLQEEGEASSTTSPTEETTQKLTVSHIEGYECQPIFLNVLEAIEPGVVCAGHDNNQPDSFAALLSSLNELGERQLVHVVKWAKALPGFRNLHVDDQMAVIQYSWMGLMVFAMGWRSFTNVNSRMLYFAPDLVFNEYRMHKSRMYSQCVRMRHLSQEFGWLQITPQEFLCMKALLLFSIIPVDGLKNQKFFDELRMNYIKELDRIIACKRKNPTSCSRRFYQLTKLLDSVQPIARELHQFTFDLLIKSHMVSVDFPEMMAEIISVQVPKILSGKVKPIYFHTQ
Kind of experiment: Agonist activity at androgen receptor by cellular reporter gene assay. The class given is functional.

Another experiment deals with T3, Androgen receptor (Homo sapiens, UniProt P10275).
T3 sequence (P10275 whole entry): T2 sequence (whole entry)
As to the kind of experiment: Antagonist activity at androgen receptor by cellular reporter gene assay. The class given is functional. (In general: In a reporter assay the amount or activity of a reporter protein is the signal.)

Experiment [2] concerns the target T4, Mineralocorticoid receptor (Homo sapiens) (UniProt P08235).
T4 sequence (whole entry): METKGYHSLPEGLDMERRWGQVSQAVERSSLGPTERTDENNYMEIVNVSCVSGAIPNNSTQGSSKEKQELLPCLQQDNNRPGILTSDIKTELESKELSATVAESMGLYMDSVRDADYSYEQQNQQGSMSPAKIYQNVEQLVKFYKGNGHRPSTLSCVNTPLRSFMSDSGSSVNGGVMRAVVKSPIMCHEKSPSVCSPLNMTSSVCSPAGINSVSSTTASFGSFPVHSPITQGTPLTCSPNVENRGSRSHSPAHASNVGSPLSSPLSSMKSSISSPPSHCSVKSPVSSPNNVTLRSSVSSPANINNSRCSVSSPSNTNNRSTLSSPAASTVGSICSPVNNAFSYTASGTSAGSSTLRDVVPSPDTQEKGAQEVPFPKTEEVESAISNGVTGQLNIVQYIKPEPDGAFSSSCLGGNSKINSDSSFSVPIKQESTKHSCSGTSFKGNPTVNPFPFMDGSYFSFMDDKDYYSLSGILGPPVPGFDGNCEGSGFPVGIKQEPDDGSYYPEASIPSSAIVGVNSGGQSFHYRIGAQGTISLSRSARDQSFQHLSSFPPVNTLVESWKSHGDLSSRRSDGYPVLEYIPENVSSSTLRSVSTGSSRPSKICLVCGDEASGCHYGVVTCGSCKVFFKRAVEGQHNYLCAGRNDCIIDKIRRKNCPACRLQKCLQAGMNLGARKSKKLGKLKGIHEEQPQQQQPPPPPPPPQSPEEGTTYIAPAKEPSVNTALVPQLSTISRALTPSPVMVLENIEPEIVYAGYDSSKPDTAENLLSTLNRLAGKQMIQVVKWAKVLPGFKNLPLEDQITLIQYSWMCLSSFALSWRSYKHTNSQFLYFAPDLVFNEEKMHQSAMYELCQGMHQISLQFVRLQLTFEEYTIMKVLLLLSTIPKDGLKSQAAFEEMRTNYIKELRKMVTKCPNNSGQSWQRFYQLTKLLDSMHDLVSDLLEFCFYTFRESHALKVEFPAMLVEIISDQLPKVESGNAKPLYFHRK
Kind of experiment: Agonist activity at mineralocorticoid receptor by cellular reporter gene assay. The class given is functional.

The text below walks through data of ChEMBL document CHEMBL2203135, “Novel progesterone receptor modulators: 4-aryl-phenylsulfonamides” (Bioorg Med Chem Lett, 2012).

The term IC50 denotes the concentration that inhibits the measured activity by half. Read a high IC50 as a need for much substance.

The structures appear in SMILES notation. Calls of active or inactive are those of the source. No cut-off for these calls is given here.

For `CCS(=O)(=O)Nc1cc(F)c(-c2ccc(C#N)n2C)c(F)c1`, the IC50 came out at 12 nM on Progesterone receptor and 100 nM on Androgen receptor. The result in experiment [1] and in experiment [2] was inactive.
As for `COC[C@]1(OC)CC[C@H]2[C@@H]3CCC4=CC(=O)CCC4=C3[C@@H](c3ccc(/C=N/O)cc3)C[C@@]21C` [ASOPRISNIL], the IC50 against Progesterone receptor was 0.3 nM; at Androgen receptor, 9 nM. In addition, the outcome in experiment [1] and in experiment [2] was inactive.
